Laboratory results reported in publication PMC3584946, “Three-component synthesis of pyrano[2,3-d]-pyrimidine dione derivatives facilitated by sulfonic acid nanoporous silica (SBA-Pr-SO3H) and their docking and urease inhibitory activity” (DARU Journal of Pharmaceutical Sciences, 2013).
Read-outs that look alike come from different tables or passages of the source.

Target: Jack bean urease (Canavalia ensiformis, UniProt P07374)
Assay: phenol red urease assay, […] nm
Format: biochemical
[1] = 100 mM urea, 10 mM phosphate pH 7.0, 37°C, 30 min, read-out: IC50

Jack bean urease, sequence (P07374 whole entry): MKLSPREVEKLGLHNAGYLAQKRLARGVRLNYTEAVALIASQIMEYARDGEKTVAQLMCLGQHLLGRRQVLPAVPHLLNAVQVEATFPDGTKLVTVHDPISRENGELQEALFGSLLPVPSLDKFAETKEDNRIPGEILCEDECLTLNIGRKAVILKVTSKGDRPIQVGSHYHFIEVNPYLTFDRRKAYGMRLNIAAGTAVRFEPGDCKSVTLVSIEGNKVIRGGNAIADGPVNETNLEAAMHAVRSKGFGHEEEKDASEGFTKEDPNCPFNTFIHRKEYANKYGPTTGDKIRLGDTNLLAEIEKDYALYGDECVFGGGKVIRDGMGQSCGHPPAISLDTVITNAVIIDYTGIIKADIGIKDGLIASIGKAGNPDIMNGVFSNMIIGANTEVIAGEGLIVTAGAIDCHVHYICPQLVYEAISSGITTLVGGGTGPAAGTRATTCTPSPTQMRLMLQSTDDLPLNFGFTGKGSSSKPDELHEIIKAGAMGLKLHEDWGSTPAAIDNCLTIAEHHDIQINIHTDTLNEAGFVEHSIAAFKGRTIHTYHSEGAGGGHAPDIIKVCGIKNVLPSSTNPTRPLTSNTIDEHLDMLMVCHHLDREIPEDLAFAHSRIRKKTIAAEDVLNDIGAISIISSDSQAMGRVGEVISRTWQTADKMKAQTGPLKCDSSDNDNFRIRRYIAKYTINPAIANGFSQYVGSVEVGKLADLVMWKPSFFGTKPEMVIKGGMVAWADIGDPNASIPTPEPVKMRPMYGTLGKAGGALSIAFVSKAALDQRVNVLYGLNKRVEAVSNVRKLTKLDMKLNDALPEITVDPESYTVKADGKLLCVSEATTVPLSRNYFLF

**Q.** With N#CC1=C(N)Oc2[nH]c(=O)[nH]c(=O)c2C1c1c(Cl)cccc1Cl (stereo not drawn) [4k, 7-Amino-6-cyano-5-(2,6-dichlorophenyl)-5H-pyrano[2,3-d]pyrimidinone] as the molecule, how does the IC50 [1] read?
**A.** 41 µM

**Q.** Which IC50 [1] does the source give for Cc1cccc(C2C(C#N)=C(N)Oc3[nH]c(=O)[nH]c(=O)c32)c1 (stereo not drawn) [4f, 7-Amino-6-cyano-5-(3-methylphenyl)-5H-pyrano[2,3-d]pyrimidine-2,4(1H,3H)-diones] here?
**A.** 41.1 µM

**Q.** Which IC50 does the source give for COc1cccc(C2C(C#N)=C(N)Oc3[nH]c(=O)[nH]c(=O)c32)c1 (stereo not drawn) [4h, 7-Amino-6-cyano-5-(3-methoxylphenyl)-5H-pyrano[2,3-d]pyrimidine-2,4(1H,3H)-diones] here?
**A.** 106 µM
